ChEMBL document CHEMBL1201862, “PubChem BioAssay data set” (2004)
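Five compound concentrations were applied to cells in 96-well plates for 48 hours; endpoints were derived by simple linear interpolation of the resulting dose-response curve. GI50 is the concentration that inhibits growth by half.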 Active and inactive are the calls of the source. Rule as the data show it: active = GI50 up to about 1.1 µM and inactive = higher.

Assays:
Assay in all cases: inhibition of tumour cell growth, NCI panel, 48 h
[1] = tested on: TK-10
[2] = tested on: COLO 205
[3] = tested on: OVCAR-3
[4] = tested on: SK-MEL-5
[5] = tested on: CAKI-1
[6] = tested on: MDA-MB-435
[7] = tested on: SN12C
[8] = tested on: MDA-MB-231
[9] = tested on: A549
[10] = tested on: OVCAR-4
[11] = tested on: EKVX
[12] = tested on: Malme-3M
[13] = tested on: OVCAR-8
[14] = tested on: SK-MEL-2
[15] = tested on: 786-0
[16] = tested on: K562
[17] = tested on: RXF 393
[18] = tested on: T47D
[19] = tested on: Hs-578T
[20] = tested on: BT-549

CC(C)C(=O)NCC[C@@H](CNC(=O)OC(C)(C)C)NC(=O)OC(C)(C)C
GI50 [1]: > 100 µM (inactive) | GI50 [2]: > 100 µM (inactive) | GI50 [3]: > 100 µM (inactive) | GI50 [4]: > 100 µM (inactive) | GI50 [5]: > 100 µM (inactive) | GI50 [6]: > 100 µM (inactive) | GI50 [7]: > 100 µM (inactive) | GI50 [8]: > 100 µM (inactive) | GI50 [9]: > 100 µM (inactive) | GI50 [10]: > 100 µM (inactive) | GI50 [11]: > 100 µM (inactive) | GI50 [12]: > 100 µM (inactive) | GI50 [13]: > 100 µM (inactive) | GI50 [14]: > 100 µM (inactive) | GI50 [15]: > 100 µM (inactive) | GI50 [16]: > 100 µM (inactive) | GI50 [17]: > 100 µM (inactive) | GI50 [18]: > 100 µM (inactive) | GI50 [19]: > 100 µM (inactive) | GI50 [20]: > 100 µM (inactive)

CCCCCCC(O)C(O)CCC(O)C1CCC(CCCCC(O)CC2=CC(C)OC2=O)O1 (stereo not given) [ACETOGENINS]
GI50 [1]: 8.09 µM (inactive) | GI50 [2]: 1.75 µM (inactive) | GI50 [3]: 1.71 µM (inactive) | GI50 [4]: 1.04 µM (active) | GI50 [5]: 2.2 µM (inactive) | GI50 [6]: 17.4 µM (inactive) | GI50 [7]: 3.08 µM (inactive) | GI50 [8]: 1.2 µM (inactive) | GI50 [9]: 1.79 µM (inactive) | GI50 [10]: 17.5 µM (inactive) | GI50 [11]: 1.92 µM (inactive) | GI50 [12]: 17 µM (inactive) | GI50 [13]: 2.18 µM (inactive) | GI50 [14]: 2.99 µM (inactive) | GI50 [15]: 6.58 µM (inactive) | GI50 [16]: 1.82 µM (inactive) | GI50 [17]: 5.87 µM (inactive) | GI50 [18]: 3.13 µM (inactive) | GI50 [19]: 2.23 µM (inactive) | GI50 [20]: 23.4 µM (inactive)
